Experiments:
[1] = Chemo-stability and drug release of 9a and CLB in buffers at pH 2, 5 and 7.4 (LC-MS); type: physicochemical; settings: all three pH cases
Method: Stock solutions chemo-stability studies were prepared by dissolving 5 mg of the tested compound in 5000 μl of DMSO.
Incubation procedure: Aqueous stability was determined at pH 2, 5 and 7.4. Aliquots (100 μl) of stock solution were diluted to a total of 2.5 mL with the desired buffer and then incubated at 37° C. During the incubation period (up to 160 h) 250 μL portions were drawn at different time intervals, filtered and analyzed by LC-MS.
Peptidyl delivery systems loaded with anticancer drugs are expected to reach their site of action with minimal degradation. The PDS should be stable enough to be absorbed by cancer cells and only then deliver its toxic cargo. Chemo-stability and bio-stability studies may give us a background check for the endurance of our compact peptidyl DDS under the different conditions it is expected to encounter in a potential animal test. To that end, samples of 9a were incubated at pH 2, mimicking stomach conditions, at pH 5 mimicking the microenvironment in tumors, and at physiological pH 7.4, all at 37° C. Aliquots from the stock solutions were extracted at different time intervals and analyzed by LC-MS following the decrease in concentration of 9a (i.e., chemical degradation) and the formation of the dihydroxy derivative 11. In addition, the direct release of the different drugs was also followed based on the increase in the concentration of CLB, AZA and CAMP over time. In this analysis samples of 9a, 11, CLB, AZA and CAMP were used as references. Overall, the HPLC trace presents a very complex mixture of metabolites which could not be exhaustively characterized. Scheme 9 below presented the molecular structure 11.

[2] = system: HCT 116, H1299, TRAMP C2 and HEK cell lines; test: XTT growth inhibition assay, statements over all tested cell lines; type: cell-based, human; settings: for IC50 values: tested cell lines including HEK; for cytotoxicity throughout the study: 1-10 μM, 24 and 72 h
Method: (§1) The cytotoxicity of the peptide-drug conjugates was determined by measuring the mitochondrial enzyme activity, using a commercial XTT assay kit. All samples contained DMSO at final concentration <0.05%. Cells were cultured in micro wells at 2-4×10^4 cells/ml and incubated for 24 h or 72 h. After the first incubation period the cultures were washed and then given fresh medium containing different concentrations of the tested substances. At the end of the second incubation, XTT reagent was added and the cells were re-incubated for additional 2-4 h. During that time the absorbencies in the wells were measured with a TECAN Infinite M200 plate reader at both 480 and 680 nm. The difference between these measurements was used for calculating the % Growth Inhibition (GI) in test wells compared to two controls: cells that were exposed to the medium and solvent, and those that were exposed to a solvent-free medium. All the tests were done in quadruplicates. Each experiment was conducted twice.
(§2) In order to compare the cytotoxic effects of the conjugates relative to the free drugs, the in vitro cytotoxic effect of the drug bioconjugates 1a-e was determined on SSTR2 overexpressed HCT 116 human colorectal carcinoma, H1299 human non-small cell lung carcinoma and TRAMP C2 human prostate cancer cell lines. The SSTR2 low-expressed HEK-293 (Human Embryonic Kidney 293) cell line was used as a negative control. The study was elaborated over a concentration range of 1-10 μM.
FIGS. 13A-13D present the results of the XTT growth inhibition assay conducted for conjugates 1a-e. Growth inhibition effect of drug-conjugates versus free drugs was studied on three cell lines with an over-expression of SSTR2 (FIG. 13A. HCT 116; FIG. 13B. H1299; FIG. 13C. TRAMP C2) against the SSTR2 low expression cell line (FIG. 13D) HEK as negative control. All the cell lines were seeded and allowed to adhere in the wells, after which they were treated with the different compounds in increasing concentrations for 24 and 72 hr. After the treatment, growth inhibition was measured using the XTT assay: The culture medium was replaced by a new one, and then the XTT reagent was added. The wells were incubated for 2-4 hrs. after which the optical density (OD) was measured at 480 and 680 nm. Percentage of growth inhibition for each compound was calculated by comparison of the treated culture versus a control culture (free of any compound). The result shown for each concentration point represents the mean±standard error calculated from two different experiments. In each experiment the compounds were tested in quadruplicates.

[3] = system: H1299 human non-small cell lung carcinoma cells; test: XTT growth inhibition assay, H1299; type: cell-based; settings: 10 μM, incubation of 72 h
Method: as §1, §2
FIGS. 13A-13D present the results of the XTT growth inhibition assay conducted for conjugates 1a-e. […] After the treatment, growth inhibition was measured using the XTT assay: The culture medium was replaced by a new one, and then the XTT reagent was added. The wells were incubated for 2-4 hrs. after which the optical density (OD) was measured at 480 and 680 nm. Percentage of growth inhibition for each compound was calculated by comparison of the treated culture versus a control culture (free of any compound). The result shown for each concentration point represents the mean±standard error calculated from two different experiments. […]

[4] = Bio-stability and drug release of conjugates 1a-e in murine liver homogenate (LH); type: in vitro ADME, mouse; settings: for half-life: mouse, tissue homogenate, read-out: degradation t1/2 in liver homogenate
Method: Preparation of liver homogenate: Mice were sacrificed by CO2 inhalation euthanasia. The livers were removed, minced, washed three times in cold PBS buffer and homogenized in Tris-HCl buffer, pH 7.4 (wt/3 vol.) by dozen strokes in a Potter-Elvehjem glass tissue grinder. The tissue homogenate was centrifuged at 4° C., 14000 rpm, 20 min. The supernatant was carefully collected (liver homogenate) and used immediately or else stored in liquid nitrogen.
Incubation procedure: Incubations were conducted in a 37° C. incubator with 2 ml homogenate (equivalent to 6 mg total protein of mouse liver homogenate) per incubation tube. The samples were prepared by adding 50 μl of stock solution to the homogenate (homogenate mixture) at the beginning of the incubation period. Aliquots of the homogenate mixture were removed after 10, 30, 60, 90, 120 and 180 min and then immediately quenched with 2.5 volumes of ethanol. The samples were centrifuged at 14000 rpm for 15 min. Supernatants were collected, filtered and analyzed by LC-MS.
FIGS. 12A-12E present the results of the bio-stability and drug release profiles assays conducted for conjugates 1a-e in LH. […] Stock solutions were prepared by dissolving 5 mg of the measured conjugate in 0.5 ml DMSO. 50 μl of the stock solution were diluted with 2 ml of fresh mouse liver homogenate and then the mixture was incubated at 37° C. Aliquots were collected at 10, 30, 60, 90 and 120 min, mixed with 2.5 volumes of ethanol and centrifuged (14,000 rpm, 15 min). The supernatants were collected, filtered and analyzed by LC-MS

[5] = Chemo-stability and drug release of conjugates 1a-e in buffers at pH 2, 5 and 7.4 (LC-MS); type: physicochemical
Method: Incubation procedure: Aqueous stability was determined at pH 2.0 (phosphate buffer), 5.0 (citrate buffer) and 7.4 (PBS buffer). 100 μl of the stock solutions were diluted to 2.5 ml with the desired buffer and then incubated at 37° C. During the incubation period (up to 200 hrs.), aliquots were removed at different time intervals, filtered and analyzed by LC-MS.
Chemo-stability. The chemo-stability tests of the conjugates were performed at three different pH values; a physiological pH of 7.4, the slightly acidic pH 5, mimicking the microenvironment in tumors, and the more acidic pH 2.
FIGS. 11A-11J present the results of the chemo-stability and drug release profiles assays, conducted for conjugates 1a-e at pH 2, 5 and 7.4. Degradation of 1a (FIG. 11A), 1b (FIG. 11C), 1c (FIG. 11E), 1d (FIG. 11G), 1e FIG. 11 (FIG. 11I), and the release of the corresponding drugs: CLB (FIG. 11B), CPT (FIG. 11D), AM (FIG. 11F), ABT-751 (FIG. 11H), and COMB (FIG. 11J). Stock solutions were prepared by dissolving 5 mg of the measured conjugate in 0.5 ml DMSO. 100 μl of the stock solution were diluted to 2.5 ml with the relevant buffer and then incubated at 37° C. Along the incubation period, aliquots were taken at the desired time points and analyzed by LC-MS.

In the case of `CC[C@]1(OC(=O)NCCCC[C@H](NC(=O)CCCc2ccc(N(CCO)CCO)cc2)C(=O)NCCCC[C@H](NC(=O)Oc2c(OC)cc([C@H]3c4[nH]c5ccccc5c4CC4COC(=O)N43)cc2OC)C(=O)O)C(=O)OCc2c1cc1n(c2=O)Cc2cc3ccccc3nc2-1` (stereo partly drawn) [compound 11], the “time after which no traces of 11 are left” value [1] is reported as 40 h and the “time at which formation of 11 from 9a reaches its maximum” value [1] is reported as 5 h.
In the case of `COc1ccc(/C=C\c2cc(OC)c(OC)c(OC)c2)cc1O` [COMB, combretastatin A4], the IC50 values [2] is reported as “low μM range”.
In the case of `CC[C@@]1(OC(=O)NCCCC(=O)N[C@H](Cc2ccccc2)C(=O)N[C@H]2CSSCCN(CC(N)=O)C(=O)[C@H](Cc3ccccc3)NC(=O)[C@H]([C@@H](C)O)NC(=O)[C@H](CCCCN)NC(=O)[C@@H](Cc3c[nH]c4ccccc34)NC(=O)[C@H](Cc3c[nH]c4ccccc34)NC(=O)[C@H](Cc3ccccc3)NC2=O)C(=O)OCc2c1cc1n(c2=O)Cc2cc3ccccc3nc2-1` [conjugate 1b], the “cytotoxic effect on H1299” value [3] is reported as “most active”, the half-life ([4]; pH 7.4, 37° C.) is reported as 37 min and the “cytotoxicity throughout the study” value [2] is reported as “targeted but cell selective cytotoxicity”.
In the case of `COc1ccc(S(=O)(=O)Nc2cccnc2Nc2ccc(O)cc2)cc1` [ABT-751, reference compound], the “cytotoxic effect on H1299” value [3] is reported as “considerable cytotoxic effect”, the “degradation of free drug” value ([5]; buffers, 37° C.) is reported as “certain degradation behavior” and the “stability of free drug in liver homogenate” value ([4]; measured time period) is reported as “rapid degradation”. For the same molecule, the IC50 values [2] was “low μM range”.
In the case of `C[C@@H](O)[C@@H]1NC(=O)[C@H](CCCCN)NC(=O)[C@@H](Cc2c[nH]c3ccccc23)NC(=O)[C@H](Cc2c[nH]c3ccccc23)NC(=O)[C@H](Cc2ccccc2)NC(=O)[C@@H](NC(=O)[C@@H](Cc2ccccc2)NC(=O)CCCNC(=O)CCCc2ccc(N(CCCl)CCCl)cc2)CSSCCN(CC(N)=O)C(=O)[C@H](Cc2ccccc2)NC1=O` [conjugate 1a], the degradation of conjugate ([5]; all tested pH values (pH 2, 5, 7.4), 37° C.) is reported as “considerable degradation”, the “CLB release from conjugate” value ([5]; pH 2, 5 and 7.4, 37° C.) is reported as “observed only at acidic pH 2” and the half-life ([5]; pH 2, 37° C., read-out: CLB release t1/2 (converted)) is reported as 51 h. The half-life ([4]; 37° C.) was 57 min and the “cytotoxicity throughout the study” value [2] was “poorly active”.
